Results published in ChEMBL document CHEMBL1133993, “Chemical synthesis of UDP-beta-L-arabinofuranose and its turnover to UDP-beta-L-arabinopyranose by UDP-galactopyranose mutase” (Bioorg Med Chem Lett, 2001).

System: Escherichia coli
Assay: Kinetic constant using the compound as substrate was determined against Escherichia coli UDP-galactopyranose mutase

Row | Km | k cat | SMILES
1 | 22 µM | 27 s⁻¹ | O=c1ccn(C2O[C@H](COP(=O)(O)OP(=O)(O)OC3O[C@H]([C@H](O)CO)[C@H](O)[C@H]3O)[C@@H](O)[C@H]2O)c(=O)[nH]1 (some centres undefined)
2 | 600 µM | 12 s⁻¹ | O=c1ccn([C@@H]2O[C@H](COP(=O)(O)OP(=O)(O)O[C@H]3O[C@@H](CO)[C@H](O)[C@H]3O)[C@@H](O)[C@H]2O)c(=O)[nH]1
